Experimental data taken from US11512085B2, “Heteroaryl compound having drug activity” (SHANGHAI DUDE MEDICAL TECHNOLOGY CO., LTD, priority 2017, dated 2022).
Read-outs that look alike come from different tables or passages of the source.

Experiments:
[1] = Pharmacokinetic study, single intravenous and oral dose, beagle dogs; type: in vivo; conditions: male, blood; for AUC(0-t) / Cmax / Tmax / half-life: Dog; for half-life: read-out: T½ (converted)
Experimental: Biological Embodiment 7: Pharmacokinetic Study of Performing Respective Single Intravenous and Oral Dose Delivery with Test Samples on SD Rats and Beagle Dogs
6 male beagle dogs were selected, grouped and administered according to an experimental design table; 3 animals in the first group were intravenously administered once on the day of administration, wherein the administration dosage was 2 mg/kg, and the administration volume was 2.5 mL/kg; 3 animals in the second group were orally intragastrically administered once on the day of administration, wherein the administration dosage was 30 mg/kg, and the administration volume was 5 mL/kg.
All the animals were subjected to cage edge observation twice every day so as to determine whether the animals got ill or had injuries or death and other situations and whether supply of foods and water was sufficient. In the test process, all administered animals were subjected to detailed clinical observation before administration and at blood collection points.
Before administration (0 h) and within 0.083 h, 0.25 h, 0.5 h, 1 h, 2 h, 4 h, 6 h, 8 h and 24 h after administration, blood samples were collected from femoral veins at 10 time points so as to be used for blood concentration test. Experimental design table

p-Erk/t-Erk = assay: Western blotting of p-Erk/t-Erk in anti-IgG stimulated DOHH2 cells; type: cell-based; conditions: DOHH2 cells, 5, 100, 2000 nM, 1 h, anti-IgG stimulation
Experimental: Biological Embodiment 4: Analysis of Influences of Test Compounds on p-Btk/t-Btk, p-PLCγ/t-PLCγ and p-Erk/t-Erk Expression Levels of DOHH2 Cells by Virtue of Western Blotting
1) DOHH2 cells on a logarithmic phase were collected;
2) a cell concentration was adjusted to a needed concentration;
3) 2 ml of cell suspension was added into a 6-well plate for performing culture, three different concentrations, that is, 5 nM, 100 nM and 2000 nM, of test samples were respectively set, and each concentration was repeated once;
4) test samples were added into plate wells, and DMSO served as control, wherein a final concentration of the DMSO was 0.1%;
5) culture was performed for 1 h; and […]
6. protein extraction and quantification […]
5) a protein concentration was determined by using Pierce™ BCA Protein Assay Kit; and
6) according to BCA protein quantification results, all samples were diluted to the same final concentration by adding 4×LDS sample buffer and 10× sample reducing agent into the RIPA buffer solution, and the solution was heated at 100° C. for 10 min. […]
10) chemiluminiscence was detected by Tanon 5200 multi.
7. Quantification of strip intensity
Intensity of each strip was quantified by using Image quant densitometry software. […]

SD rats = assay: Single dose toxicity test in SD rats; type: in vivo
Experimental: Biological Embodiment 6: Single Dose Toxicity Test
During the experiment, all the animals were subjected to detailed clinical observation once (2 hours after drug administration) on the Day 1 and once every day on Day 2-14; the animals were weighed on the day of animal grouping, on the day of drug administration (before drug administration), Day 4, 7, 10 and 13 after drug administration and on the day of dissection, and weights were recorded; food consumption per cage was weighed within 24 hours on Day 2, 6, 9 and 13 in the experiment and recorded; and all live animals were subjected to gross anatomy examination on Day 15.
1. Preparation of Test and Control Products
a solvent control group: 30 ml of solvents (0.5% MC (methylcellulose), 0.4% of cremophor EL and 0.1% of sodium lauryl sulfate) were sucked into a suitable container, the pH value was measured as 7, and a colorless clarified solution was obtained.
(§1) Compound 6 (400 mg/kg): 1507.1 mg of the compound 6 was weighed into a suitable container, solvents (0.5% MC (methylcellulose), 0.4% cremophor EL and 0.1% sodium lauryl sulfate) were added into the container to reach a constant volume of 30 ml, ultrasonic treatment was performed for 20 minutes, stirring was performed for 15 minutes, a mixing instrument was used for 5 minutes, the pH value was measured as 7, and white suspension was obtained.
as §1, with “(1000” for “(400”, “3765.5” for “1507.1”, “25” for “20”, “21” for “15”, “obtained. […]” for “obtained.”

Q: What does the source list for `C=CC(=O)NN1CCCC(n2nc(-c3ccc(Oc4ccccc4)cc3)c3c(N)ncnc32)C1` (stereo not shown) [Embodiment 6, N-(3-(4-amino-3-(4-phenoxyphenyl)-1H-pyrazolo[3,4-D]pyrimidine-1-yl)-1-piperidyl)-acrylamide]?
A: AUC(0-t) ([1]; IV, 2 mg/kg): 888 ng·h/mL; Cmax ([1]; IV, 2 mg/kg): 1230 ng/mL; Tmax ([1]; IV, 2 mg/kg): 4.98 min; half-life ([1]; IV, 2 mg/kg): 48 min; AUC(0-t) ([1]; PO, 30 mg/kg): 7420 ng·h/mL; Cmax ([1]; PO, 30 mg/kg): 3830 ng/mL; Tmax ([1]; PO, 30 mg/kg): 49.8 min; half-life ([1]; PO, 30 mg/kg): 45 min; bioavailability ([1]; dog, oral, 30 mg/kg): 54.6%; relative level of p-Erk/t-Erk (p-Erk/t-Erk): obviously decreased; Maximum tolerance dosage (SD rats; SD rats, oral, once, 0, 400, 1000, 2000 mg/kg): 2000 mg/kg; Gross anatomy (SD rats; rat, in vivo): no abnormality; Results (single dose toxicity) (SD rats; rat, in vivo): No animal died; all tissues
